This note sets out measurements from US20240228497A1, “Pyrrolo[2, 3-b]Pyrazine-Based Bifunctional Compounds as HPK1 Degraders and the Use Thereof” (BeiGene, Ltd., priority 2021, published 2024).

The subject of experiment [1] is pSLP76 (S376) level in Jurkat cell line. In words: Cellular pSLP76(S376) HTRF Assay in Jurkat cells. The class given is cell-based. Particulars: 2 h compound treatment, stimulated with 0.05 μg/mL anti-human CD3 (OKT3) for 30 min. As for the experimental part: Cellular pSLP76(S376) HTRF Assay
Jurkat cell line was used in this study. Cells were maintained in RPMI 1640 supplemented with heat-inactivated 10% fetal bovine serum (Thermo Fisher), 50 units/mL penicillin and streptomycin (Thermo Fisher) and kept at 37° C. in a humidified atmosphere of 5% CO2 in air. Cells were reinstated from frozen stocks that were laid down within 30 passages from the original cells purchased. After cell starvation in the assay buffer (RPMI 1640 supplemented with heat-inactivated 0.1% fetal bovine serum) for 18 hours, cells were seeded into a round bottom 96-well plate at 150,000 cells per well density. Cells were treated with a 9-point dilution series of test compounds. The final compound concentration is from 0 to 2 μM. After 2 h compound treatment, cells were stimulated with 0.05 μg/mL anti-human CD3 (OKT3, Bioxcell) for 30 min at 37° C. Then the cells were lysed, and the pSLP76 (S376) level in the cell lysates was detected by HTRF kit (Cisbio). A total of 16 μL of cell lysate from each well of a 96-well plate was transferred to a 384-well small volume white assay plate. Lysate from each well was incubated with 2 μL of Eu^3+-cryptate (donor) labeled anti-phospho-SLP76 and 2 μL of D2 (acceptor) labeled anti-phospho-SLP76 antibodies (Cisbio) overnight in dark at room temperature. FRET signals (655 nm) were measured using a PHERAstar FSX reader (BMG Labtech). IC50 determination was performed by fitting the curve of percent inhibition versus the log of the inhibitor concentration using Dotmatics.
(In general: In TR-FRET formats the signal depends on donor and acceptor labels being close together.)

Another experiment has as its target T1, HPK1 protein (Homo sapiens, UniProt Q92918).
T1 construct: host or cells: human PBMC (CD4+ and CD8+ T cells gated in the FACS assay)
Put plainly: HPK1 Protein Degradation Assay in Human PBMC (Western Blot). It counts as cell-based. Particulars: 24 h compound incubation. The procedure:
HPK1 Protein Degradation Assay in Human PBMC (Western Blot)
Human PBMCs (AllCells) was used in this study. Cells were thawed one day in advance and maintained in RPMI-1640 supplemented 10% fetal bovine serum (Thermo Fisher), 50 units/mL penicillin and streptomycin (Thermo Fisher) and the mixture was kept at 37° C. in a humidified atmosphere air containing 5% CO2. 3×10^6 PBMCs per well in 1 mL culture medium were seeded in the 12-well plate, and the cells were treated with an appropriate dilution series of compounds with a final concentration up to […]. After 24 h of compound incubation, the medium was aspirated, the cells were washed with PBS, and then 30 μL of 1X protein lysis buffer (Cell Signaling Technology) containing protease inhibitors (Merck) and phosphatase inhibitors (Sigma) was added. The cells were lysed. After centrifugation, the supernatants were quantified by BCA protein assay kit (Thermo Fisher). 4X loading Buffer (Thermo Fisher) was added to equal amounts of total protein from each sample and heated at 95° C. for 5 minutes. 30-50 μg of cell lysate was loaded onto a 4%-12% NuPAGE Bis-Tris Gel (Thermo Fisher) and electro-transferred to NC membranes (Thermo Fisher). The membranes were blocked for least 1 hour with blocking reagent (LI-COR), and then incubated overnight with anti-HPK1 (Cell Signaling Technology, 4472S) antibodies and as loading control anti-ß-actin (Cell Signaling Technology, 3700S) or anti-GAPDH (Cell Signaling Technology, 97166S) at 4° C. with gentle shaking. The membranes were washed three times with TBST, and incubated at least 1 hour at room temperature with anti-mouse or anti-rabbit secondary fluorescent antibody (Thermo Fisher, A32729; LI—COR, 926-32213). Then the membranes were washed three times in TBST, and one time in water. Immunoreactive bands were visualized by Odyssey CLx and analyzed by GraphPad Prism 8.
(A western blot detects proteins with antibodies after separation by electrophoresis.)

Experiment [2] deals with T2, HPK1 kinase (aa1-346, Life Technologies) (Homo sapiens, UniProt Q92918).
T2 construct: HPK1 kinase (aa1-346, Life Technologies); purchased Life Technologies
T2 sequence (Q92918 1-346): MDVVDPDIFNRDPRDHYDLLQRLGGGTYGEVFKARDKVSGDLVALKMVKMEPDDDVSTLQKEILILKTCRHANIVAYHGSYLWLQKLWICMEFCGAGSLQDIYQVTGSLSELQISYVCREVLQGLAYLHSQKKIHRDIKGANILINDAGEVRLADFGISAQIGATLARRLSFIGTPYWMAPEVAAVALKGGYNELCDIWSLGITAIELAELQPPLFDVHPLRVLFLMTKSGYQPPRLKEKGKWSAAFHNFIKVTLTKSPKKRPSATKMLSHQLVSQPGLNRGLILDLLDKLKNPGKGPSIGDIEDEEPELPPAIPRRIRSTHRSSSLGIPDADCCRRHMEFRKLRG
In words: HPK Kinase Activity Assay at 1 mM ATP (TR-FRET). Particulars: HPK1 kinase 40 nM, 0.5 μM STK1 substrate, 60 min preincubation, read-out: Enzymatic activity IC50. The class given is biochemical. As for the experimental part:
HPK Kinase Activity Assay at 1 mM ATP
Compounds disclosed herein were tested for inhibition of HPK1 kinase (aa1-346, Life Technologies) activity in assays based on the time-resolved fluorescence-resonance energy transfer (TR-FRET) methodology. The assays were carried out in 384-well low volume black plates in a reaction mixture containing HPK1 kinase (40 nM), 1 mM ATP, 0.5 μM STK1 substrate and 0-10 μM compound in buffer containing 50 mM HEPES, 0.01% BSA, 0.1 mM Orthovanadate, 10 mM MgCl2, 1 mM DTT, pH=7.0, 0.005% Tween-20. The kinase was incubated with the compounds disclosed herein or DMSO for 60 minutes at room temperature and the reaction was initiated by the addition of ATP and STK1 substrate. After reaction at room temperature for 120 minutes, an equal volume of stop/detection solution was added according to the manufacture's instruction (CisBio). The stop/detection solution contained STK Antibody—Cryptate and XL665-conjugated streptavidin in Detection Buffer. The TR-FRET signals (ratio of fluorescence emission at 665 nm over emission at 620 nm with excitation at 337 nm wavelength) were recorded on a PHERAstar FS plate reader (BMG Labtech). Phosphorylation of STK1 substrate led to the binding of STK Antibody—Cryptate to the biotinylated STK1 substrate, which places fluorescent donor (Eu^3+ crypate) in close proximity to the accepter (Streptavidin-XL665), thus resulting in a high degree of fluorescence resonance energy transfer. The inhibition of HPK1 in presence of increasing concentrations of compounds was calculated based on the ratio of fluorescence at 665 nm to that at 620 nm. IC50 determination was performed by fitting the curve of percent inhibition versus the log of the inhibitor concentration using Dotmatics.

T1 sequence (Q92918 whole entry): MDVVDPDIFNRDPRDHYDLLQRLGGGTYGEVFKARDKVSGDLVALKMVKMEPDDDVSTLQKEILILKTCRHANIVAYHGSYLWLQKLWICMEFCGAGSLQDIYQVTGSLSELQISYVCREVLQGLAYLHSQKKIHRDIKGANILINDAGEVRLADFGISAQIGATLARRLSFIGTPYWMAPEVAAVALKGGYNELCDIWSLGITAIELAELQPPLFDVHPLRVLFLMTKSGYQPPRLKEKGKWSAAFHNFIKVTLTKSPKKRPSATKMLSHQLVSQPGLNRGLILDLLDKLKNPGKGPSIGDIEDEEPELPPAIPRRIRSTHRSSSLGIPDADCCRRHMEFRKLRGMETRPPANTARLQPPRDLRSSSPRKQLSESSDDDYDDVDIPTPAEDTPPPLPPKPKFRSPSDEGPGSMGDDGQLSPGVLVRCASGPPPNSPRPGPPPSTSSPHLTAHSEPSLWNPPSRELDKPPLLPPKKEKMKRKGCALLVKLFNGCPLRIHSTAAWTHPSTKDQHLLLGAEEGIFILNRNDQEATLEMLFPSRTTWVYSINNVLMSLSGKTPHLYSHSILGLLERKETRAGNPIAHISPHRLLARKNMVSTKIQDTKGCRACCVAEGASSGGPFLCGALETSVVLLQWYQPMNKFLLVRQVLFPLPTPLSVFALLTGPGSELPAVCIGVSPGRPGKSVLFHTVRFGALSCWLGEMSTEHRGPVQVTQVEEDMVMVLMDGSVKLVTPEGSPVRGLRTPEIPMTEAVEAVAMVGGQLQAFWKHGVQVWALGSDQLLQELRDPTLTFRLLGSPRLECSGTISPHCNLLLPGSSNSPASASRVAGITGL

Turning to `Cc1cc(-c2c[nH]c3ncc(-c4cc(C)c5c(c4)CCN(CCNC(=O)C4CCN(c6ccc7c(c6)C(=O)N(C6CCC(=O)NC6=O)C7=O)CC4)C5)nc23)ccc1C(=O)N(C)C` (centres unmarked) [Example 1, N-(2-(6-(7-(4-(dimethylcarbamoyl)-3-methylphenyl)-5H-pyrrolo[2,3-b]pyrazin-2-yl)-8-methyl-3,4-dihydroisoquinolin-2(1H)-yl)ethyl)-1-(2-(2,6-dioxopiperidin-3-yl)-1,3-dioxoisoindolin-5-yl)piperidine-4-carboxamide], the IC50 (in general, the midpoint of a concentration-inhibition curve) in experiment [1] was 879 nM. In addition, at HPK1 protein, the DC50 (as a rule, the concentration giving 50% degradation) was 183 nM; the Dmax (in general, the greatest extent of degradation seen) is 47%; the “Protein degradation DC90” value amounted to 3805 nM. Also, in experiment [2], the IC50 stood at 121 nM.

Take `Cc1cc(-c2c[nH]c3ncc(-c4cc(C)c5c(c4)CCN(CCC(=O)NCC4CCN(c6ccc(C7CCC(=O)NC7=O)cc6)CC4)C5)nc23)ccc1C(=O)N(C)C` (centres unmarked) [Example 2, 4-(2-(2-(3-(((1-(4-(2,6-dioxopiperidin-3-yl)phenyl)piperidin-4-yl)methyl)amino)-3-oxopropyl)-8-methyl-1,2,3,4-tetrahydroisoquinolin-6-yl)-5H-pyrrolo[2,3-b]pyrazin-7-yl)-N,N,2-trimethylbenzamide]: in experiment [1], the IC50 was 515 nM. Further, at HPK1 protein, the DC50 came out at 87 nM, the Dmax was determined as 91% and the “Protein degradation DC90” value is listed as 294 nM. Also, the IC50 in experiment [2] stood at 253 nM.

Take `Cc1cc(-c2c[nH]c3ncc(-c4cc(C)c5c(c4)CCN(CCC(=O)NC4CCN(c6ccc(N7CCC(=O)NC7=O)cc6)CC4)C5)nc23)ccc1C(=O)N(C)C` [Example 4, 4-(2-(2-(3-((1-(4-(2,4-dioxotetrahydropyrimidin-1(2H)-yl)phenyl)piperidin-4-yl)amino)-3-oxopropyl)-8-methyl-1,2,3,4-tetrahydroisoquinolin-6-yl)-5H-pyrrolo[2,3-b]pyrazin-7-yl)-N,N,2-trimethylbenzamide]: half-maximal inhibition in experiment [1] (IC50) was put at 459 nM. In addition, on HPK1 protein, the DC50 stood at 59 nM, the Dmax worked out at 95% and the “Protein degradation DC90” value turned out to be 817 nM. Further, the IC50 in experiment [2] is 140 nM.

On to `Cc1cc(-c2c[nH]c3ncc(-c4cc(C)c5c(c4)CCN(CCC(=O)N4CCN(c6ccc(N7CCC(=O)NC7=O)cc6)CC4)C5)nc23)ccc1C(=O)N(C)C` [Example 3, 4-(2-(2-(3-(4-(4-(2,4-dioxotetrahydropyrimidin-1(2H)-yl)phenyl)piperazin-1-yl)-3-oxopropyl)-8-methyl-1,2,3,4-tetrahydroisoquinolin-6-yl)-5H-pyrrolo[2,3-b]pyrazin-7-yl)-N,N,2-trimethylbenzamide], for which, in experiment [1], the IC50 turned out to be 193 nM. Also, at HPK1 protein, the half-maximal degradation concentration (DC50) was 23 nM, the Dmax came out at 97% and the “Protein degradation DC90” value was found to be 215 nM. For the same compound, the IC50 in experiment [2] amounted to 61 nM.
